Here are results for eleven compounds from patent publication US20140329863A1 (priority 2011, published 2014).

Like-named read-outs stand apart in the source and are kept apart here.

In series [1] the test system is PrP^Sc in dividing ScN2a-cl3 cells. Type of series: cell-based, mouse. Details: Dividing ELISA pEC50 (μM) 1st Expt. / Dividing ELISA pEC50 (μM) 2nd Expt. / Dividing ELISA pEC50 (μM) 3rd Expt. / Dividing ELISA pEC50 (μM) Mean: unit not given here. To be noted: ScN2a-cl3 dividing cells.
Series [2] deals with PrP^Sc in nondividing ScN2a-cl3 cells. Type of series: cell-based, mouse. To be noted: read-out: Non-Dividing ELISA EC50 (μM) Mean (n = 3); ScN2a-c13 non-dividing cells; mean n = 3. A general note: An ELISA detects its analyte on a solid surface through an enzyme-linked reagent.
The next series relates to N2a-cl3 cells. Briefly: cells. To be noted: Mus musculus, N2a-cl3, read-out: Dividing Calcein EC50 (μM) Mean (n = 3).
Setting [3] is: read-out: Dividing ELISA EC50 (μM) 1st Expt., 1st determination.
The mark [4] stands for this setting: read-out: Dividing ELISA EC50 (μM) 2nd Expt., 2nd determination.
Setting [5] is: read-out: Dividing ELISA EC50 (μM) 3rd Expt., 3rd determination.
[6] abbreviates: read-out: Dividing ELISA EC50 (μM) Mean, mean of three determinations.

For orientation: EC50 means the midpoint of the concentration-response curve. A word on the melting point: it is the temperature, or range, at which the solid turns liquid. In the case of `Cc1ccc(Nc2nc(-c3ccc(-c4ccccn4)s3)cs2)nc1` [compound 26, (5-Methylpyridin-2-yl)-[4-(5-pyridin-2-yl-thiophen-2-yl)-thiazol-2-yl]-amine], the melting point lay within 197 to 199 °C. For the same compound, the “Dividing ELISA pEC50 (μM) 1st Expt.” value in series [1] (1st determination) is given as 5.80. Besides, in series [1] (2nd determination), the “Dividing ELISA pEC50 (μM) 2nd Expt.” value worked out at 6.06. For the same compound, in series [1] (3rd determination), the “Dividing ELISA pEC50 (μM) 3rd Expt.” value amounted to 5.91. The “Dividing ELISA pEC50 (μM) Mean” value in series [1] (mean of three determinations) amounted to 5.92. Besides, the EC50 in series [1] (setting [3]) worked out at 1.58 µM. For the same compound, in series [1] (setting [4]), the EC50 worked out at 0.879 µM. The EC50 in series [1] (setting [5]) turned out to be 1.22 µM. For the same compound, in series [1] (setting [6]), the EC50 was found to be 1.23 µM. In addition, the EC50 in series [2] is more than 32 µM. Besides, in the series with N2a-cl3 cells, the EC50 was more than 32 µM.

In turn, `COc1ccc(-c2csc(Nc3ccccn3)n2)cc1OC` [compound 6, [4-(3,4-dimethoxyphenyl)-thiazol-2-yl]pyridin-2-yl-amine] yielded a melting point of 211 to 214 °C. The EC50 in series [1] (setting [3]) stood at 11.8 µM. The EC50 in series [1] (setting [4]) was determined as 6.47 µM. In series [1] (setting [5]), the EC50 came out at 6.38 µM. Moreover, the EC50 in series [1] (setting [6]) came out at 8.22 µM. In addition, the 50% effective concentration (EC50) in series [2] is more than 32 µM. Further, in the series with N2a-cl3 cells, the EC50 is more than 32 µM.

As for `COc1ccc(-c2csc(Nc3ccc(C)cn3)n2)cc1` [compound 21, [4-(4-Methoxyphenyl)-thiazol-2-yl]-(5-methylpyridin-2-yl)-amine], the melting point was 246 to 248 °C. For the same compound, in series [1] (1st determination), the “Dividing ELISA pEC50 (μM) 1st Expt.” value is given as 5.30. The “Dividing ELISA pEC50 (μM) 2nd Expt.” value in series [1] (2nd determination) is 5.72. Besides, in series [1] (3rd determination), the “Dividing ELISA pEC50 (μM) 3rd Expt.” value worked out at 5.66. Also, in series [1] (mean of three determinations), the “Dividing ELISA pEC50 (μM) Mean” value is listed as 5.56. Moreover, the EC50 in series [1] (setting [3]) was 5.02 µM. Also, in series [1] (setting [4]), the EC50 came to 1.89 µM. In addition, the EC50 in series [1] (setting [5]) stood at 2.19 µM. The EC50 in series [1] (setting [6]) is 3.03 µM. Moreover, the EC50 in series [2] was more than 32 µM. Further, the EC50 in the series on N2a-cl3 cells is more than 32 µM.

`COc1ccc(-c2csc(Nc3cccc4ccccc34)n2)cc1OC` [compound 20, [4-(3,4-dimethoxyphenyl)-thiazol-2-yl]-naphthalen-1-yl-amine]: the melting point was in the range of 244 to 246 °C. The “Dividing ELISA pEC50 (μM) 1st Expt.” value in series [1] (1st determination) is recorded as more than 4.5. In addition, the “Dividing ELISA pEC50 (μM) 2nd Expt.” value in series [1] (2nd determination) is recorded as more than 4.5. For the same compound, the “Dividing ELISA pEC50 (μM) 3rd Expt.” value in series [1] (3rd determination) is listed as more than 4.5. Besides, in series [1] (setting [3]), the EC50 is more than 32 µM. The EC50 in series [1] (setting [4]) was more than 32 µM. Besides, the EC50 in series [1] (setting [5]) is more than 32 µM. Moreover, the EC50 in series [1] (setting [6]) is more than 32 µM. For the same compound, the EC50 in series [2] is more than 32 µM. For the same compound, in the series with N2a-cl3 cells, the EC50 is more than 32 µM.

The compound `COc1ccc(-c2csc(N(C(C)=O)c3cc4ccccc4cn3)n2)cc1OC` [compound 50, N-[4-(3,4-dimethoxyphenyl)-thiazol-2-yl]-N-isoquinolin-3-yl-acetamide] came in with a melting point of 164 to 165 °C. The “Dividing ELISA pEC50 (μM) 1st Expt.” value in series [1] (1st determination) is 7.04. For the same compound, the “Dividing ELISA pEC50 (μM) 2nd Expt.” value in series [1] (2nd determination) is 7.05. Further, the “Dividing ELISA pEC50 (μM) 3rd Expt.” value in series [1] (3rd determination) is reported as 7.19. The “Dividing ELISA pEC50 (μM) Mean” value in series [1] (mean of three determinations) stood at 7.09. Moreover, the EC50 in series [1] (setting [3]) stood at 0.091 µM. The EC50 in series [1] (setting [4]) came to 0.089 µM. Besides, the half-maximal effective concentration (EC50) in series [1] (setting [5]) was determined as 0.065 µM. For the same compound, the concentration giving a half-maximal response (EC50) in series [1] (setting [6]) amounted to 0.082 µM. Besides, the EC50 in series [2] was more than 10 µM. The EC50 in the series with N2a-cl3 cells was more than 10 µM.

Take `COc1ccc(-c2csc(Nc3cnccn3)n2)cc1OC` [compound 11, [4-(3,4-dimethoxyphenyl)-thiazol-2-yl]pyrazin-2-yl-amine]: the melting point lay within 205 to 207 °C. For the same compound, the “Dividing ELISA pEC50 (μM) 1st Expt.” value in series [1] (1st determination) came out at 4.59. The “Dividing ELISA pEC50 (μM) 2nd Expt.” value in series [1] (2nd determination) is reported as 5.03. Further, the “Dividing ELISA pEC50 (μM) 3rd Expt.” value in series [1] (3rd determination) came out at 4.93. The “Dividing ELISA pEC50 (μM) Mean” value in series [1] (mean of three determinations) is recorded as 4.85. Moreover, in series [1] (setting [3]), the EC50 was 26 µM. Also, the EC50 in series [1] (setting [4]) came out at 9.23 µM. Further, in series [1] (setting [5]), the EC50 turned out to be 11.7 µM. The EC50 in series [1] (setting [6]) is 15.6 µM. For the same compound, the EC50 in series [2] is more than 32 µM. Besides, the EC50 in the series with N2a-cl3 cells is more than 32 µM.

Take `COc1ccccc1-c1csc(Nc2ccc(C)cn2)n1` [compound 22, [4-(2-Methoxyphenyl)-thiazol-2-yl]-(5-methylpyridin-2-yl)-amine]: the melting point lay in the range of 228 to 230 °C. The “Dividing ELISA pEC50 (μM) 1st Expt.” value in series [1] (1st determination) is more than 4.5. For the same compound, the “Dividing ELISA pEC50 (μM) 2nd Expt.” value in series [1] (2nd determination) was 4.58. Moreover, in series [1] (3rd determination), the “Dividing ELISA pEC50 (μM) 3rd Expt.” value is recorded as 4.52. The EC50 in series [1] (setting [3]) was more than 32 µM. In series [1] (setting [4]), the EC50 worked out at 26.1 µM. Also, in series [1] (setting [5]), the EC50 was 30.2 µM. Moreover, in series [1] (setting [6]), the EC50 is more than 29 µM. For the same compound, the EC50 in series [2] was more than 32 µM. For the same compound, the EC50 in the series on N2a-cl3 cells was more than 32 µM.

In turn, `Cc1cccc(Nc2nc(-c3cc(-c4ccccc4)no3)cs2)n1` [compound 44, (6-Methylpyridin-2-yl)-[4-(3-phenylisoxazol-5-yl)-thiazol-2-yl]-amine] gave a melting point of 291 to 293 °C. Further, the “Dividing ELISA pEC50 (μM) 1st Expt.” value in series [1] (1st determination) came out at 6.03. Further, in series [1] (2nd determination), the “Dividing ELISA pEC50 (μM) 2nd Expt.” value is listed as 6.13. In series [1] (3rd determination), the “Dividing ELISA pEC50 (μM) 3rd Expt.” value came to 6.10. For the same compound, the “Dividing ELISA pEC50 (μM) Mean” value in series [1] (mean of three determinations) turned out to be 6.09. Further, the EC50 in series [1] (setting [3]) turned out to be 0.926 µM. For the same compound, the EC50 in series [1] (setting [4]) stood at 0.733 µM. In addition, in series [1] (setting [5]), the EC50 came to 0.794 µM. The EC50 in series [1] (setting [6]) amounted to 0.818 µM. Besides, in series [2], the EC50 is more than 32 µM. Further, in the series on N2a-cl3 cells, the EC50 is more than 32 µM.

In the case of `COc1ccc(-c2csc(Nc3ccccc3)n2)cc1OC` [compound 9, [4-(3,4-dimethoxyphenyl)-thiazol-2-yl]-phenyl-amine], the melting point was 170 to 174 °C. Also, the “Dividing ELISA pEC50 (μM) 1st Expt.” value in series [1] (1st determination) was 5.13. In series [1] (2nd determination), the “Dividing ELISA pEC50 (μM) 2nd Expt.” value stood at 5.14. Moreover, the “Dividing ELISA pEC50 (μM) 3rd Expt.” value in series [1] (3rd determination) is recorded as 5.35. In series [1] (mean of three determinations), the “Dividing ELISA pEC50 (μM) Mean” value worked out at 5.21. For the same compound, the EC50 in series [1] (setting [3]) is 7.4 µM. The EC50 in series [1] (setting [4]) stood at 7.29 µM. Moreover, the EC50 in series [1] (setting [5]) amounted to 4.45 µM. In addition, the EC50 in series [1] (setting [6]) came out at 6.38 µM. Moreover, in series [2], the EC50 is more than 32 µM. Moreover, in the series with N2a-cl3 cells, the EC50 is more than 32 µM.

For `c1ccc(-c2ccc(-c3csc(Nc4cc5ccccc5cn4)n3)s2)nc1` [compound 34, Isoquinolin-3-yl-[4-(5-pyridin-2-yl-thiophen-2-yl)-thiazol-2-yl]-amine], the melting point was 246 to 248 °C. In addition, the “Dividing ELISA pEC50 (μM) 1st Expt.” value in series [1] (1st determination) amounted to 5.65. The “Dividing ELISA pEC50 (μM) 2nd Expt.” value in series [1] (2nd determination) is 5.79. For the same compound, the “Dividing ELISA pEC50 (μM) 3rd Expt.” value in series [1] (3rd determination) amounted to 5.67. In addition, the “Dividing ELISA pEC50 (μM) Mean” value in series [1] (mean of three determinations) is 5.70. Further, the EC50 in series [1] (setting [3]) turned out to be 2.25 µM. In series [1] (setting [4]), the EC50 came to 1.61 µM. Further, the EC50 in series [1] (setting [5]) came out at 2.16 µM. The EC50 in series [1] (setting [6]) is 2.01 µM. Further, the EC50 in series [2] is more than 32 µM. Further, in the series on N2a-cl3 cells, the EC50 is more than 32 µM.

`COc1ccc(-c2csc(Nc3ccncc3)n2)cc1OC` [compound 8, [4-(3,4-dimethoxyphenyl)-thiazol-2-yl]pyridin-4-yl-amine] showed a melting point of 205 to 207 °C. The “Dividing ELISA pEC50 (μM) 1st Expt.” value in series [1] (1st determination) is more than 4.5. Moreover, the “Dividing ELISA pEC50 (μM) 2nd Expt.” value in series [1] (2nd determination) turned out to be 4.60. In addition, in series [1] (3rd determination), the “Dividing ELISA pEC50 (μM) 3rd Expt.” value is given as 4.57. In addition, the EC50 in series [1] (setting [3]) is more than 32 µM. In series [1] (setting [4]), the EC50 came out at 25.2 µM. In series [1] (setting [5]), the EC50 was determined as 26.9 µM. Besides, the EC50 in series [1] (setting [6]) is more than 28 µM. In series [2], the EC50 was more than 32 µM. For the same compound, the EC50 in the series on N2a-cl3 cells was more than 32 µM.
